Assay results: ChEMBL document CHEMBL1201862, “PubChem BioAssay data set” (2004)
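Following 48 hours of exposure in 96-well plates, responses at five concentrations were used to interpolate endpoints linearly. The concentration for 50% growth inhibition is given as GI50.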 The source made the active and inactive calls. No stated cut-off is given here; in the data, active = GI50 up to about 1.1 µM and inactive = higher.

Experiments:
Experiment in all cases: NCI anticancer screen, dose series, 48 h
RXF 393 = test system: RXF 393
NCI-H460 = test system: NCI-H460
DMS-273 = test system: DMS-273
HCT-116 = test system: HCT-116
DLD-1 = test system: DLD-1
NCI-H522 = test system: NCI-H522
COLO 205 = test system: COLO 205
Malme-3M = test system: Malme-3M
HOP-92 = test system: HOP-92
SK-MEL-5 = test system: SK-MEL-5
UO-31 = test system: UO-31
SNB-19 = test system: SNB-19
OVCAR-4 = test system: OVCAR-4
OVCAR-8 = test system: OVCAR-8
HL-60 = test system: HL-60
HT-29 = test system: HT-29
ACHN = test system: ACHN
KM-20L2 = test system: KM-20L2
U-251 = test system: U-251
MOLT-4 = test system: MOLT-4
RPMI-8226 = test system: RPMI-8226
DMS-114 = test system: DMS-114
SR = test system: SR
M19-MEL = test system: M19-MEL
HOP-62 = test system: HOP-62
UACC-257 = test system: UACC-257
786-0 = test system: 786-0
A549 = test system: A549
NCI-H23 = test system: NCI-H23
CCRF-CEM = test system: CCRF-CEM
K562 = test system: K562
EKVX = test system: EKVX
SW-620 = test system: SW-620
SK-MEL-28 = test system: SK-MEL-28
SF-539 = test system: SF-539
SNB-78 = test system: SNB-78
OVCAR-3 = test system: OVCAR-3
SK-MEL-2 = test system: SK-MEL-2
HCC 2998 = test system: HCC 2998
SN12C = test system: SN12C
KM12 = test system: KM12
SF-268 = test system: SF-268
NCI-H226 = test system: NCI-H226
LOX IMVI = test system: LOX IMVI
CAKI-1 = test system: CAKI-1
SF-295 = test system: SF-295
M14 = test system: M14
A498 = test system: A498
LXFL 529 = test system: LXFL 529
TK-10 = test system: TK-10
OVCAR-5 = test system: OVCAR-5

Measured: GI50

C/C(C=O)=C1\C(O)C[C@]1(C)C1CC(C)(C)CC1O (stereo partly specified)
inactive: RXF 393 > 100 µM | NCI-H460 > 100 µM | DMS-273 > 100 µM | HCT-116 72.9 µM | DLD-1 > 100 µM | NCI-H522 32 µM | COLO 205 > 100 µM | Malme-3M > 100 µM | HOP-92 74.1 µM | SK-MEL-5 > 100 µM | UO-31 > 100 µM | SNB-19 > 100 µM | OVCAR-4 35.7 µM | OVCAR-8 > 100 µM | HL-60 91 µM | HT-29 > 100 µM | ACHN > 100 µM | KM-20L2 > 100 µM | U-251 > 100 µM | MOLT-4 35.7 µM | RPMI-8226 42.3 µM | DMS-114 39.1 µM | SR 47 µM | M19-MEL > 100 µM | HOP-62 > 100 µM | UACC-257 > 100 µM | 786-0 > 100 µM | A549 > 100 µM | NCI-H23 > 100 µM | CCRF-CEM 26.7 µM | K562 54.6 µM | EKVX > 100 µM | SW-620 > 100 µM | SK-MEL-28 > 100 µM | SF-539 49.1 µM | SNB-78 > 100 µM | OVCAR-3 28.8 µM | SK-MEL-2 > 100 µM | HCC 2998 > 100 µM | SN12C > 100 µM | KM12 > 100 µM | SF-268 > 100 µM | NCI-H226 > 100 µM | LOX IMVI > 100 µM | CAKI-1 > 100 µM | SF-295 41.4 µM | M14 47.3 µM | A498 > 100 µM | LXFL 529 57.1 µM | TK-10 > 100 µM | OVCAR-5 > 100 µM
